Legend:
Assay in all cases: Microbiological challenge testing in BPW broth, graded subculture counts
Format in all cases: cell-based
[1] = test system: Aspergillus niger Wild type; details: A. niger
How it was run: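 Wild-type A. niger, grown in TSB with 1% dextrose at 22 °C and on SABD until sporulation, was adjusted to 1.0×10^8 spores/vegetative cells (hemocytometer). It was inoculated in triplicate into BPW with 1% dextrose to give 10^5 to 10^6 CFU/mL at time zero. Counts were by spread plate on SABD, ≥48 h at 22 °C, CFU/mL = count × dilution factor.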

[2] = test system: Candida albicans Wild type; details: C. albicans
How it was run: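 Wild-type C. albicans grown in TSB with 1% dextrose at 22 °C, then adjusted by turbidity and hemocytometer to a 10^8 CFU/mL challenge confirmed on SABD plates. Challenge added to BPW broth containing 1% dextrose, giving 10^5 to 10^6 CFU/mL at time zero; controls in triplicate. Counts by serial dilution and spread-plating after at least 48 h incubation.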

[3] = test system: Escherichia coli ATCC 25922; details: E. Coli
How it was run: (§1)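 Strains grown in TSB with 1% dextrose at 35 °C for ≥96 h. Inoculum added to BPW broth with 1% dextrose, with or without test material (w/v), to 10^5–10^6 CFU/mL at time zero. Counts by spread-plating serial 1:10 dilutions in pH 7.2 phosphate buffer on PCA, incubated at 35 °C for ≥48 h.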

[4] = test system: Proteus vulgaris Wild type
How it was run: as §1

[5] = test system: Staphylococcus epidermidis ATCC 12228
How it was run: as §1

**Q.** `CCCCOCCO` [EB, 2-butoxyethanol] was tested. Which Grade ([1]; 2.5% (wt/vol), 3 day) did it give?
**A.** 4

**Q.** And the Grade ([1]; 2.5% (wt/vol), 13 day)?
**A.** 4

**Q.** What about the Grade ([1]; 2.5% (wt/vol), 30 day) of the same compound?
**A.** 4

**Q.** What about the Grade ([1]; 5.0% (wt/vol), 3 day) of the same compound?
**A.** 2.5

**Q.** And the Grade ([1]; 5.0% (wt/vol), 13 day)?
**A.** 0

**Q.** And the Grade ([1]; 5.0% (wt/vol), 30 day)?
**A.** 0

**Q.** And the Grade ([2]; 2.5% (wt/vol), 3 day)?
**A.** 4 (1000 to 10,000 colonies countable (thus 10,000 CFU/mL to 100,000 CFU/mL))

**Q.** What about the Grade ([2]; 2.5% (wt/vol), 14 day) of the same compound?
**A.** 4 (1000 to 10,000 colonies countable (thus 10,000 CFU/mL to 100,000 CFU/mL))

**Q.** What about the Grade ([2]; 2.5% (wt/vol), 30 day) of the same compound?
**A.** 4 (1000 to 10,000 colonies countable (thus 10,000 CFU/mL to 100,000 CFU/mL))

**Q.** And the Grade ([2]; 5.0% (wt/vol), 3 day)?
**A.** 2 (52 to 100 colonies counted (thus 520 to 1000 CFU/mL))

**Q.** And the Grade ([2]; 5.0% (wt/vol), 14 day)?
**A.** 0

**Q.** And the Grade ([2]; 5.0% (wt/vol), 30 day)?
**A.** 0

**Q.** And the Grade ([3]; 2.5% (wt/vol), 3 day)?
**A.** 4 (1000 to 10,000 colonies countable (thus 10,000 CFU/mL to 100,000 CFU/mL))

**Q.** And the Grade ([3]; 2.5% (wt/vol), 14 day)?
**A.** 4 (1000 to 10,000 colonies countable (thus 10,000 CFU/mL to 100,000 CFU/mL))

**Q.** What about the Grade ([3]; 2.5% (wt/vol), 30 day) of the same compound?
**A.** 4 (1000 to 10,000 colonies countable (thus 10,000 CFU/mL to 100,000 CFU/mL))

**Q.** What about the Grade ([3]; 5.0% (wt/vol), 3 day) of the same compound?
**A.** 1 (0 to 51 colonies counted (thus 10 to 510 CFU/mL based on 0.1-mL sample))

**Q.** And the Grade ([3]; 5.0% (wt/vol), 14 day)?
**A.** 0

**Q.** What about the Grade ([3]; 5.0% (wt/vol), 30 day) of the same compound?
**A.** 0

**Q.** And the “P. vulgaris growth grade, 3 day” value ([4]; 2.5% weight/volume)?
**A.** 4 (1000 to 10,000 colonies countable (thus 10,000 CFU/mL to 100,000 CFU/mL))

**Q.** And the “P. vulgaris growth grade, 13 day” value ([4]; 2.5% weight/volume)?
**A.** 4 (1000 to 10,000 colonies countable (thus 10,000 CFU/mL to 100,000 CFU/mL))

**Q.** And the “P. vulgaris growth grade, 30 day” value ([4]; 2.5% weight/volume)?
**A.** 4 (1000 to 10,000 colonies countable (thus 10,000 CFU/mL to 100,000 CFU/mL))

**Q.** And the “P. vulgaris growth grade, 3 day” value ([4]; 5.0% weight/volume)?
**A.** 0

**Q.** What about the “P. vulgaris growth grade, 13 day” value ([4]; 5.0% weight/volume) of the same compound?
**A.** 0

**Q.** What about the “P. vulgaris growth grade, 30 day” value ([4]; 5.0% weight/volume) of the same compound?
**A.** 0

**Q.** What about the “S. epidermidis growth grade, 3 day” value ([5]; 2.5% weight/volume) of the same compound?
**A.** 4 (1000 to 10,000 colonies countable (thus 10,000 CFU/mL to 100,000 CFU/mL))

**Q.** What about the “S. epidermidis growth grade, 13 day” value ([5]; 2.5% weight/volume) of the same compound?
**A.** 4 (1000 to 10,000 colonies countable (thus 10,000 CFU/mL to 100,000 CFU/mL))

**Q.** And the “S. epidermidis growth grade, 30 day” value ([5]; 2.5% weight/volume)?
**A.** 4 (1000 to 10,000 colonies countable (thus 10,000 CFU/mL to 100,000 CFU/mL))

**Q.** And the “S. epidermidis growth grade, 3 day” value ([5]; 5.0% weight/volume)?
**A.** 0

**Q.** What about the “S. epidermidis growth grade, 13 day” value ([5]; 5.0% weight/volume) of the same compound?
**A.** 0

**Q.** And the “S. epidermidis growth grade, 30 day” value ([5]; 5.0% weight/volume)?
**A.** 0

**Q.** What does the source list for `O=C([O-])CN(CCN(CC(=O)[O-])CC(=O)O)CC(=O)O.[Na+].[Na+]` [EDTA, Na2EDTA]?
**A.** Grade ([1]; 0.5% (wt/vol), 3 day): 4; Grade ([1]; 0.5% (wt/vol), 13 day): 4; Grade ([1]; 0.5% (wt/vol), 30 day): 4; Grade ([1]; 1.25% (wt/vol), 3 day): 2 (Countable (10 to 100 colonies)); Grade ([1]; 1.25% (wt/vol), 13 day): 1 (Countable (1 to 10 colonies)); Grade ([1]; 1.25% (wt/vol), 30 day): 3; Grade ([1]; 2.5% (wt/vol), 3 day): 0; Grade ([1]; 2.5% (wt/vol), 13 day): 0; Grade ([1]; 2.5% (wt/vol), 30 day): 0; Grade ([1]; 5.0% (wt/vol), 3 day): 0; Grade ([1]; 5.0% (wt/vol), 13 day): 0; Grade ([1]; 5.0% (wt/vol), 30 day): 0; Grade ([2]; 0.5% (wt/vol), 3 day): 4 (1000 to 10,000 colonies countable (thus 10,000 CFU/mL to 100,000 CFU/mL)); Grade ([2]; 0.5% (wt/vol), 14 day): 5 (More than 10,000 colonies estimated (thus more than 100,000 CFU/mL)); Grade ([2]; 0.5% (wt/vol), 30 day): 5 (More than 10,000 colonies estimated (thus more than 100,000 CFU/mL)); Grade ([2]; 1.25% (wt/vol), 3 day): 4 (1000 to 10,000 colonies countable (thus 10,000 CFU/mL to 100,000 CFU/mL)); Grade ([2]; 1.25% (wt/vol), 14 day): 4 (1000 to 10,000 colonies countable (thus 10,000 CFU/mL to 100,000 CFU/mL)); Grade ([2]; 1.25% (wt/vol), 30 day): 4 (1000 to 10,000 colonies countable (thus 10,000 CFU/mL to 100,000 CFU/mL)); Grade ([2]; 2.5% (wt/vol), 3 day): 2 (52 to 100 colonies counted (thus 520 to 1000 CFU/mL)); Grade ([2]; 2.5% (wt/vol), 14 day): 2 (52 to 100 colonies counted (thus 520 to 1000 CFU/mL)); Grade ([2]; 2.5% (wt/vol), 30 day): 2 (52 to 100 colonies counted (thus 520 to 1000 CFU/mL)); Grade ([2]; 5.0% (wt/vol), 3 day): 1 (0 to 51 colonies counted (thus 10 to 510 CFU/mL based on 0.1-mL sample)); Grade ([2]; 5.0% (wt/vol), 14 day): 0; Grade ([2]; 5.0% (wt/vol), 30 day): 0; Grade ([3]; 0.5% (wt/vol), 3 day): 5 (More than 10,000 colonies estimated (thus more than 100,000 CFU/mL)); Grade ([3]; 0.5% (wt/vol), 14 day): 5 (More than 10,000 colonies estimated (thus more than 100,000 CFU/mL)); Grade ([3]; 0.5% (wt/vol), 30 day): 5 (More than 10,000 colonies estimated (thus more than 100,000 CFU/mL)); Grade ([3]; 1.25% (wt/vol), 3 day): 4 (1000 to 10,000 colonies countable (thus 10,000 CFU/mL to 100,000 CFU/mL)); Grade ([3]; 1.25% (wt/vol), 14 day): 4 (1000 to 10,000 colonies countable (thus 10,000 CFU/mL to 100,000 CFU/mL)); Grade ([3]; 1.25% (wt/vol), 30 day): 4 (1000 to 10,000 colonies countable (thus 10,000 CFU/mL to 100,000 CFU/mL)); Grade ([3]; 2.5% (wt/vol), 3 day): 0; Grade ([3]; 2.5% (wt/vol), 14 day): 0; Grade ([3]; 2.5% (wt/vol), 30 day): 0; Grade ([3]; 5.0% (wt/vol), 3 day): 0; Grade ([3]; 5.0% (wt/vol), 14 day): 0; Grade ([3]; 5.0% (wt/vol), 30 day): 0; P. vulgaris growth grade, 3 day ([4]; 0.5% weight/volume): 5 (More than 10,000 colonies estimated (thus more than 100,000 CFU/mL)); P. vulgaris growth grade, 13 day ([4]; 0.5% weight/volume): 4 (1000 to 10,000 colonies countable (thus 10,000 CFU/mL to 100,000 CFU/mL)); P. vulgaris growth grade, 30 day ([4]; 0.5% weight/volume): 4 (1000 to 10,000 colonies countable (thus 10,000 CFU/mL to 100,000 CFU/mL)); P. vulgaris growth grade, 3 day ([4]; 1.25% weight/volume): 3 (100 to 1000 colonies (thus 1000 to 10,000 CFU/mL)); P. vulgaris growth grade, 13 day ([4]; 1.25% weight/volume): 1 (0 to 51 colonies counted (thus 10 to 510 CFU/mL based on 0.1-mL sample)); P. vulgaris growth grade, 30 day ([4]; 1.25% weight/volume): 3 (100 to 1000 colonies (thus 1000 to 10,000 CFU/mL)); P. vulgaris growth grade, 3 day ([4]; 2.5% weight/volume): 4 (1000 to 10,000 colonies countable (thus 10,000 CFU/mL to 100,000 CFU/mL)); P. vulgaris growth grade, 13 day ([4]; 2.5% weight/volume): 4 (1000 to 10,000 colonies countable (thus 10,000 CFU/mL to 100,000 CFU/mL)); P. vulgaris growth grade, 30 day ([4]; 2.5% weight/volume): 4 (1000 to 10,000 colonies countable (thus 10,000 CFU/mL to 100,000 CFU/mL)); P. vulgaris growth grade, 3 day ([4]; 5.0% weight/volume): 4 (1000 to 10,000 colonies countable (thus 10,000 CFU/mL to 100,000 CFU/mL)); P. vulgaris growth grade, 13 day ([4]; 5.0% weight/volume): 4 (1000 to 10,000 colonies countable (thus 10,000 CFU/mL to 100,000 CFU/mL)); P. vulgaris growth grade, 30 day ([4]; 5.0% weight/volume): 4 (1000 to 10,000 colonies countable (thus 10,000 CFU/mL to 100,000 CFU/mL)); S. epidermidis growth grade, 3 day ([5]; 0.5% weight/volume): 4 (1000 to 10,000 colonies countable (thus 10,000 CFU/mL to 100,000 CFU/mL)); S. epidermidis growth grade, 13 day ([5]; 0.5% weight/volume): 3 (100 to 1000 colonies (thus 1000 to 10,000 CFU/mL)); S. epidermidis growth grade, 30 day ([5]; 0.5% weight/volume): 4 (1000 to 10,000 colonies countable (thus 10,000 CFU/mL to 100,000 CFU/mL)); S. epidermidis growth grade, 3 day ([5]; 1.25% weight/volume): 2 (52 to 100 colonies counted (thus 520 to 1000 CFU/mL)); S. epidermidis growth grade, 13 day ([5]; 1.25% weight/volume): 1 (0 to 51 colonies counted (thus 10 to 510 CFU/mL based on 0.1-mL sample)); S. epidermidis growth grade, 30 day ([5]; 1.25% weight/volume): 0; S. epidermidis growth grade, 3 day ([5]; 2.5% weight/volume): 0; S. epidermidis growth grade, 13 day ([5]; 2.5% weight/volume): 0; S. epidermidis growth grade, 30 day ([5]; 2.5% weight/volume): 0; S. epidermidis growth grade, 3 day ([5]; 5.0% weight/volume): 0; S. epidermidis growth grade, 13 day ([5]; 5.0% weight/volume): 0; S. epidermidis growth grade, 30 day ([5]; 5.0% weight/volume): 0

Source: patent US20100160454A1, “ANTIMICROBIAL AGENTS, COMPOSITIONS AND PRODUCTS CONTAINING THE SAME, AND METHODS OF USING THE COMPOSITIONS AND PRODUCTS” (Eastman Chemical Company, priority 2008, published 2010)
